Assays:
Conditions in all cases: third passage
293 cells = assay: Effect of replacement compounds on the growth of 293 cells in 293 SFM without transferrin, three passages; assay type: cell-based, human
Protocol: Semi-confluent adherent cultures of 293 Cells (ATCC, CRL 1573) are readily adapted to suspension culture. The cells are first detached with a solution of Trypsin-EDTA (0.05% Trypsin, 0.53 mM Na4EDTA), and then resuspended in conventional medium supplemented with 10% FBS to inhibit the trypsin. The resuspended cells are centrifuged at 200×g for five minutes.
The initial seeding density of the 293 cells after conversion to suspension culture is 1×10^6 cells/mL. The cells are shaken on a rotary shaker at 150 rpm in a 37° C. incubator equilibrated with 8% CO2-92% air. […] Because 293 cells have a tendency to aggregate, the cells can be vortexed vigorously for approximately 45 seconds to obtain a predominantly single cell suspension at the time of passaging and counting. After several passages in suspension culture, the maximum achievable density can be determined.
For replacement compound evaluation, 293 cells were established in 125 mL shaker flasks at an initial viable seeding density of 2×10^5 cells/mL in a final volume of 20 mL. All cultures were maintained at 37° C. in humidified air containing 8% CO2. To eliminate transferrin carry-over effects, cells were subcultured at 4 day intervals for a total of three passages. At each subculturing, cells were seeded at a density of 2×10^5 cells/mL. Positive control cultures contained 5 μg/mL human holo-transferrin while negative control cultures were established in the absence of either transferrin or replacement compound. Replacement compound stocks were prepared at 0.1M-0.2M in ddH2O and solubilized when necessary using 5N NaOH or HCl. Iron complexes were established using 0.2 M replacement compound and iron stocks mixed 1:1 (v/v) and incubated for 5-10 minutes at 22° C. All solutions containing replacement compounds were filter sterilized using a 0.22 μm Millex-GV filter prior to addition to transferrin and serum-free media.
Except where noted, replacement compounds were evaluated either alone or in combination with ferric chloride or ferrous sulfate at 25 μM, 50 μM and 100 μM. When used in combination, the replacement compounds were used in equimolar concentration with iron ions. Values in Table 4 represent the mean percentage of control growth for duplicate cultures determined at the third passage.
When added to the medium formulation uncomplexed, the replacement compound is listed alone, when added as a complex with a transition metal, the source of the transition metal is listed with the replacement compound.

Sp2/0 cells = assay: Effect of replacement compounds on the growth of Sp2/0 cells in CD Hybridoma medium without transferrin, three passages; assay type: cell-based
Protocol: The ability of replacement compounds to support cellular growth in the absence of transferrin was evaluated using Sp2/0 cells maintained in CD Hybridoma medium (Invitrogen Corporation, Carlsbad, Calif.).
Stock cultures containing 5 μg/mL human holo-transferrin were prepared in CD Hybridoma medium. For replacement compound evaluation, Sp2/0 cells were established at an initial viable cell density of 0.5×10^5 cells/mL in stationary culture using 75 cm^2 tissue culture flasks in a final volume of 20 mL. All cultures were maintained at 37° C. in humidified air containing 8% CO2. To eliminate transferrin carry-over effects, cells were subcultured at the same seeding density at 4 day intervals for a total of three passages. Positive control cultures contained 5 μg/mL human holo-transferrin while negative control cultures were established in the absence of either transferrin or replacement compound. Replacement compound stocks were prepared at 0.1M-0.2M in ddH2O and solubilized when necessary using 5N NaOH or HCl. Iron complexes were established using 0.2M replacement compound and iron stocks mixed 1:1 (v/v) and incubated for 5-10 minutes at 22° C. All solutions containing replacement compounds were filter sterilized using a 0.22 μm Millex-GV filter prior to addition to transferrin and serum-free media.
Except where otherwise noted, replacement compounds were evaluated either alone or in combination with ferric chloride or ferrous sulfate at 25 μM, 50 μM and 100 μM. Values in the table represent the mean percentage of control growth for duplicate cultures determined at the third passage.
When added to the medium formulation un-complexed, the replacement compound is listed alone, when added as a complex with a transition metal, the source of the transition metal is listed with the replacement compound.

CHO cells = assay: Effect of replacement compounds on the growth of CHO cells in CD CHO medium without transferrin, three passages; assay type: cell-based, Chinese hamster
Protocol: The ability of replacement compounds to support cellular growth in the absence of transferrin was evaluated using CHO cells maintained in CD CHO medium (Invitrogen Corporation, Carlsbad, Calif., the formulation of which is described in WO 98/08934). Stock cultures containing 5 μg/mL human holo-transferrin were prepared in CD CHO medium. For replacement compound evaluation, CHO cells were established in 125 mL shaker flasks at an initial viable seeding density of 1×10^5 cells/mL in a final volume of 20 mL. All cultures were maintained at 37° C. in humidified air containing 8% CO2. To eliminate transferrin carry-over effects, cells were subcultured at 4 day intervals for a total of three passages. Positive control cultures contained 5 μg/mL human holo-transferrin while negative control cultures were established in the absence of either transferrin or replacement compound. Replacement compound stocks were prepared at 0.1M-0.2M in ddH2O and solubilized when necessary using 5N NaOH or HCl. Iron complexes were established using 0.2M replacement compound and iron stocks mixed 1:1 (v/v) and incubated for 5-10 minutes at 22° C. All solutions containing replacement compounds were filter sterilized using a 0.22 μm Millex-GV filter prior to addition to transferrin and serum-free media.
Except where noted, replacement compounds were evaluated either alone or in combination with ferric chloride or ferrous sulfate at 25 μM, 50 μM and 100 μM. Values in the table represent the mean percentage of control growth for duplicate cultures determined at the third passage.
The ability of various replacement compounds to substitute for transferrin in the culture of CHO cells was determined. When added to the medium formulation un-complexed, the replacement compound is listed alone, when added as a complex with a transition metal, the source of the transition metal is listed with the metal binding compound.

[1] = 25 μM, control 5 μg/mL human holo-transferrin, iron equimolar where combined
[2] = 50 μM, control 5 μg/mL human holo-transferrin
[3] = 100 μM, control 5 μg/mL human holo-transferrin
[4] = 25 μM, control 5 μg/mL human holo-transferrin

Row | Compound | mean percentage of control growth (293 cells; [1]) | mean percentage of control growth (293 cells; [2]) | mean percentage of control growth (293 cells; [3]) | mean percentage of control growth (Sp2/0 cells; [4]) | mean percentage of control growth (Sp2/0 cells; 50 μM) | mean percentage of control growth (Sp2/0 cells; 100 μM) | other results
1 | Acetohydroxamic Acid•Ferric Chloride | 83 percentage of control growth | 22 percentage of control growth | 0 percentage of control growth | – | – | – | mean percentage of control growth (Sp2/0 cells; 5 μM): 40 percentage of control growth; mean percentage of control growth (Sp2/0 cells; 10 μM): 48 percentage of control growth; mean percentage of control growth (Sp2/0 cells; 20 μM): 47 percentage of control growth
2 | Aspartic Acid•Ferric Chloride | 81 percentage of control growth | 86 percentage of control growth | 100 percentage of control growth | – | – | – | mean percentage of control growth (CHO cells; [4]): 77 percentage of control growth; mean percentage of control growth (CHO cells; 50 μM): 89 percentage of control growth; mean percentage of control growth (CHO cells; 100 μM): 112 percentage of control growth
3 | Nitriloacetic Acid•Ferrous Sulfate | 75 percentage of control growth | 95 percentage of control growth | 0 percentage of control growth | – | – | – | –
4 | Mimosine•Ferric Chloride | 64 percentage of control growth | 55 percentage of control growth | 80 percentage of control growth | – | – | – | –
5 | Myo-lnositol•Ferric Chloride | 79 percentage of control growth | 87 percentage of control growth | 85 percentage of control growth | – | – | – | –
6 | Sorbitol•Ferrous Sulfate | 58 percentage of control growth | 69 percentage of control growth | 83 percentage of control growth | – | – | – | –
7 | Glycine•Ferric Chloride | 81 percentage of control growth | 71 percentage of control growth | 72 percentage of control growth | 34 percentage of control growth | 61 percentage of control growth | 56 percentage of control growth | –
8 | [Cl][Fe]([Cl])[Cl].c1ccc(-c2ccccn2)nc1 [2,2-Dipyridyl•Ferric Chloride] | 51 percentage of control growth | 96 percentage of control growth | 0 percentage of control growth | – | – | – | –
9 | Morpholine•Ferric Chloride | – | – | – | 54 percentage of control growth | 64 percentage of control growth | 81 percentage of control growth | –
10 | Cc1occc(=O)c1O.[Cl][Fe]([Cl])[Cl] [3-Hydroxy-2-Methyl-4-Pyrone•Ferric Chloride] | – | – | – | 60 percentage of control growth | 71 percentage of control growth | 75 percentage of control growth | –
11 | 2-Hydroxynicotinic Acid•Ferric Chloride | – | – | 0 percentage of control growth | 64 percentage of control growth | 82 percentage of control growth | 85 percentage of control growth | mean percentage of control growth (293 cells; 150 μM): 0 percentage of control growth; mean percentage of control growth (293 cells; 200 μM): 99 percentage of control growth
12 | O=C(O)c1cccc(O)c1O.[Cl][Fe]([Cl])[Cl] [2,3-Dihydrobenzoic Acid•Ferric Chloride] | – | – | – | – | – | – | mean percentage of control growth (CHO cells; [4]): 71 percentage of control growth; mean percentage of control growth (CHO cells; 50 μM): 0 percentage of control growth; mean percentage of control growth (CHO cells; 100 μM): 0 percentage of control growth
13 | [O-][n+]1cccc(O)c1 [3-Hydroxypyridine-N-Oxide] | 4 percentage of control growth | 4 percentage of control growth | 4 percentage of control growth | – | – | – | –
14 | Glutamic Acid•Ferric Chloride | 102 percentage of control growth | 68 percentage of control growth | 83 percentage of control growth | – | – | – | –
15 | Glutamine•Ferric Chloride | – | – | – | 36 percentage of control growth | 55 percentage of control growth | 65 percentage of control growth | –
16 | CC(=O)N[C@@H](CS)C(=O)O.[Cl][Fe]([Cl])[Cl] [N-Acetyl-Cysteine•Ferric Chloride] | 88 percentage of control growth | 82 percentage of control growth | 52 percentage of control growth | – | – | – | –
17 | O=C(O)c1ccccn1.O=S(=O)([O-])[O-].[Fe+2] [2-Pyridinecarboxylic Acid•Ferrous Sulfate] | 67 percentage of control growth | 48 percentage of control growth | 0 percentage of control growth | – | – | – | –
18 | O=C(O)CN(CC(=O)O)CC(=O)O [Nitriloacetic Acid] | – | – | – | 0 percentage of control growth | 0 percentage of control growth | 0 percentage of control growth | –
19 | Lysine•Ferric Chloride | – | – | – | – | – | – | mean percentage of control growth (CHO cells; [4]): 51 percentage of control growth; mean percentage of control growth (CHO cells; 50 μM): 79 percentage of control growth; mean percentage of control growth (CHO cells; 100 μM): 98 percentage of control growth
20 | O=[N+]([O-])c1ncccc1O.[Cl][Fe]([Cl])[Cl] [3-Hydroxy-2-Nitropyridine•Ferric Chloride] | – | – | – | 52 percentage of control growth | 62 percentage of control growth | 72 percentage of control growth | –
21 | Asparagine•Ferric Chloride | – | – | – | 36 percentage of control growth | 51 percentage of control growth | 54 percentage of control growth | –

Reference: patent US9879243B2, “Culture medium for cell growth and transfection” (LIFE TECHNOLOGIES CORPORATION, priority 2001, dated 2018)
